Test results as given in patent EP0522504A1, “2-(2-substituted pyrrolidinylthio)-carbapenem derivatives” (Banyu Pharmaceutical Co., Ltd., priority 1991, dated 1993).
In brackets after ≈: the same amount, converted by molar mass. Where two headings read alike, the source gives them in different places.

How the values were obtained:
bacteria [1] = experiment: in vitro antibacterial activities, agar plate dilution method (MIC); assay type: cell-based; conditions: Mueller Hinton agar, inoculum 10⁶ CFU/mℓ, 37°C for 16 hours
Protocol: One platinum loopful of each test microorganism incubated overnight in Mueller Hinton broth, was inoculated to Mueller Hinton agar (inoculum size: 10⁶ CFU/mℓ). Such culture media contained antibacterial agents in various concentrations. After incubation at 37°C for 16 hours, the minimum inhibitory concentrations (MIC: µg/mℓ) were measured.

bacteria [2] = experiment: disc diffusion test (method of Bauer et al.), antibacterial potency relative to thienamycin; assay type: cell-based; conditions: ratio to thienamycin (= 1.0) of geometrical average MIC, larger value = higher activity
Protocol: The antibacterial activities of the compounds of the present invention described in the Examples, as representative examples of the compound of the present invention, were measured by a disc diffusion test by the method of Bauer et al. (Amer. J. Clin. Pathol., vol. 45, p. 493 (1966)). Thienamycin or imipenem was used as the internal standard.
MIC of each test compound was calculated from the diameter of the inhibition ring formed by the disc containing the test compound by using the calculation formula reported by Humphrey and Lightbown (J. Gen. Microbiol., vol. 7, p. 129 (1952)). For each microorganism, a geometrical average of MIC was obtained, and the activity ratio to thienamycin was calculated.
The antibacterial activities are represented by the ratio to thienamycin (= 1.0), whereby the larger the numerical value, the higher the activities.

DHP-I = biological target: T1, DHP-I (Homo sapiens, UniProt P16444); experiment: DHP-I susceptibility (method by Kropp et al.), ratio to imipenem; assay type: in vitro ADME
T1 sequence (P16444 17-385): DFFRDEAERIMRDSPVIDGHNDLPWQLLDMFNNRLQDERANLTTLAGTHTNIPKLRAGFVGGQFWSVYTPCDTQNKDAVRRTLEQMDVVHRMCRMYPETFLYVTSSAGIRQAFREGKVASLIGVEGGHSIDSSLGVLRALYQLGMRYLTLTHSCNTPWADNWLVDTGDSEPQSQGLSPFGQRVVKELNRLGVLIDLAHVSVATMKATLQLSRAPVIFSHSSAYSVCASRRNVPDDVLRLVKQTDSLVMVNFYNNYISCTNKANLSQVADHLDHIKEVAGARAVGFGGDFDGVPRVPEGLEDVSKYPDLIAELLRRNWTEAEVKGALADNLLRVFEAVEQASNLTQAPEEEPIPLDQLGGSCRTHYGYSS
Source text: The DHP-I susceptibility was quantitatively analyzed by the method by Kropp et al., Antimicrob. Agents Chemother., vol. 22, p.

[3] = Pseudomonas aeruginosa, 16 h, P. aeruginosa MB 5002, read-out: Minimum Inhibitory Concentration(MIC)
[4] = Pseudomonas aeruginosa, 16 h, P. aeruginosa MB 5178, read-out: Minimum Inhibitory Concentration(MIC)
[5] = Staphylococcus aureus, 209P / NIHJJC1, 16 h, S. aureus 209P NIHJ JC1, read-out: Minimum Inhibitory Concentration(MIC)
[6] = Staphylococcus aureus, 16 h, S. aureus BB 5939 (β-lactamase producing microorganism), read-out: Minimum Inhibitory Concentration(MIC)
[7] = Staphylococcus aureus, 16 h, S. aureus MB 4970, read-out: Minimum Inhibitory Concentration(MIC)
[8] = ratio to imipenem (=1.0), smaller value = higher stability

Structure (SMILES)	MIC (bacteria [1]; [3])	MIC (bacteria [1]; [4])	MIC (bacteria [1]; [5])	MIC (bacteria [1]; [6])	MIC (bacteria [1]; [7])	Relative antibacterial potency to thienamycin (bacteria [2]; Meth-R S. aureus)	Relative antibacterial potency to thienamycin (bacteria [2]; THM-R P.aeruginosa)	DHP-I susceptibility (DHP-I; [8])	DHP-I susceptibility (DHP-I)	MIC (bacteria [1]; Pseudomonas aeruginosa, 16 h, read-out: Minimum Inhibitory Concentration(MIC), P. aeruginosa MB 5002)	MIC (bacteria [1]; Pseudomonas aeruginosa, 16 h, read-out: Minimum Inhibitory Concentration(MIC), P. aeruginosa MB 5178)	MIC (bacteria [1]; Staphylococcus aureus, 209P / NIHJJC1, 16 h, read-out: Minimum Inhibitory Concentration(MIC), S. aureus 209P NIHJ JC1)	MIC (bacteria [1]; Staphylococcus aureus, 16 h, read-out: Minimum Inhibitory Concentration(MIC), S. aureus BB 5939 (β-lactamase producing microorganism))	MIC (bacteria [1]; Staphylococcus aureus, 16 h, read-out: Minimum Inhibitory Concentration(MIC), S. aureus MB 4970)	DHP-I susceptibility, ratio to imipenem (DHP-I; the smaller the numerical value, the higher the stability)
C/C(=C/[C@@H]1C[C@H](SC2=C(C(=O)O)N3C(=O)[C@H]([C@@H](C)O)[C@H]3[C@H]2C)CN1)CN.Cl [Example 7, (1R,5S,6S)-2-[(2S,4S)-2-[(Z)-3-amino-2-methyl-1-propenyl]pyrrolidin-4-ylthio]-6-[(R)-1-hydroxyethyl]-1-methyl-1-carbapen-2-em-3-carboxylic acid hydrochloride]	0.78 µg/mL	1.56 µg/mL	< 0.006 µg/mL	1.56 µg/mL	< 0.006 µg/mL	13.5	31.3	<0.05							
C[C@@H](O)[C@H]1C(=O)N2C(C(=O)O)=C(S[C@@H]3CN[C@H](/C=C\CN)C3)[C@H](C)[C@H]12 [Example 2, (1R,5S,6S)-2-[(2S,4S)-2-[(Z)-3-amino-1-propenyl]pyrrolidin-4-ylthio]-6-[(R)-1-hydroxyethyl]-1-methyl-1-carbapen-2-em-3-carboxylic acid]	0.78 µg/mL (≈ 2.12 µM)	1.56 µg/mL (≈ 4.25 µM)	< 0.006 µg/mL	1.56 µg/mL (≈ 4.25 µM)	0.012 µg/mL (≈ 0.0327 µM)	12.9	15.2		<0.05						
C[C@@H](O)[C@H]1C(=O)N2C(C(=O)O)=C(SCCN=CN)C[C@H]12 [imipenem, (5R,6S,8R)-3-[[2-(formimidoylamino)ethyl]thio]-6-(1-hydroxyethyl)-7-oxo-1-azabicyclo[3.2.0]hept-2-en-2-carboxylic acid monohydrate, reference compound]						2.57	2.0	1.0		1.56 µg/mL	25 µg/mL	< 0.006 µg/mL	6.25 µg/mL	0.012 µg/mL	1.0
C[C@@H](O)[C@H]1C(=O)N2C(C(=O)O)=C(S[C@@H]3CN[C@H](/C=C/C(N)=O)C3)[C@H](C)[C@H]12 [BO-2171, (1R,5S,6S)-2-[(2S,4S)-2-[(E)-2-(aminocarbonyl)vinyl]pyrrolidin-4-ylthio]-6-[(R)-1-hydroxyethyl]-1-methyl-1-carbapen-2-em-3-carboxylic acid, reference compound]	6.25 µg/mL (≈ 16.4 µM)	12.5 µg/mL (≈ 32.8 µM)	0.025 µg/mL (≈ 0.0655 µM)	6.25 µg/mL (≈ 16.4 µM)	0.025 µg/mL (≈ 0.0655 µM)	7.68	3.28		0.3						
CNC/C(C)=C\[C@@H]1C[C@H](SC2=C(C(=O)O)N3C(=O)[C@H]([C@@H](C)O)[C@H]3[C@H]2C)CN1.Cl [Example 9, (1R,5S,6S)-6-[(R)-1-hydroxyethyl]-2-[(2S,4S)-2-[(Z)-3-(N-methylamino)-2-methyl-1-propenyl]pyrrolidin-4-ylthio]-1-methyl-1-carbapen-2-em-3-carboxylic acid hydrochloride]	0.78 µg/mL	3.13 µg/mL	< 0.006 µg/mL	1.56 µg/mL	< 0.006 µg/mL	19.7	13.4	0.10							
